What was measured:
Details in all cases: exposure time: 72 h
E13 [1] = patient-derived glioblastoma stem cells of classical subtype; test: surviving fraction (nuclei count normalised to DMSO); higher = more cells surviving (less toxic)
E21 [2] = patient-derived glioblastoma stem cells of mesenchymal subtype; test: as above
E28 [3] = patient-derived glioblastoma stem cells of classical subtype; test: as above
E31 [4] = patient-derived glioblastoma stem cells of proneural subtype; test: as above
E34 [5] = patient-derived glioblastoma stem cells of proneural subtype; test: as above
E57 [6] = patient-derived glioblastoma stem cells of mesenchymal subtype; test: as above
FT3469 [7] = normal neural stem cell line; test: as above
E13 [8] = test: phenotypic distance (Euclidean, principal components) from DMSO controls (arbitrary units); higher = stronger morphological change
E21 [9] = test: as above
E28 [10] = test: as above
E31 [11] = test: as above
E34 [12] = test: as above
E57 [13] = test: as above
FT3469 [14] = test: as above
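Throughout, for phenotypic distance (Euclidean, principal components) from DMSO controls: cell Painting imaging in 384-well plates, CellProfiler features reduced to at least 20 principal components, Euclidean distance versus same-plate DMSO vehicle wells (0.1% v/v), median over six images per well.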
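Throughout, for surviving fraction (nuclei count normalised to DMSO): nuclei counted by high-content imaging of Hoechst-stained cells in laminin-coated 384-well plates, relative to 0.1% DMSO vehicle wells, with staurosporine as cell-death control.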

CC(C)C[C@H](NC(=O)CNC(=O)c1cc(Cl)ccc1Cl)B(O)O [Ixazomib]
Details	phenotypic distance	surviving fraction
E13 [1], 4.1 nM	–	0.298
E13 [1], 12.3 nM	–	0.0451
E13 [1], 37 nM	–	0.0121
E13 [1], 111.1 nM	–	0.013
E13 [1], 333.3 nM	–	0.0174
E13 [1], 1000 nM	–	0.0252
E13 [1], 3000 nM	–	0.00174
E13 [8], 4.1 nM	4.64	–
E13 [8], 12.3 nM	9.62	–
E13 [8], 37 nM	17.4	–
E13 [8], 111.1 nM	10.6	–
E13 [8], 333.3 nM	11.8	–
E13 [8], 1000 nM	8.11	–
E13 [8], 3000 nM	11.2	–
E21 [2], 4.1 nM	–	0.275
E21 [2], 12.3 nM	–	0.0747
E21 [2], 37 nM	–	0.0159
E21 [2], 111.1 nM	–	0.0149
E21 [2], 333.3 nM	–	0.0187
E21 [2], 1000 nM	–	0.0308
E21 [2], 3000 nM	–	0.00187
E21 [9], 4.1 nM	6.82	–
E21 [9], 12.3 nM	7.74	–
E21 [9], 37 nM	11.3	–
E21 [9], 111.1 nM	9.17	–
E21 [9], 333.3 nM	11.6	–
E21 [9], 1000 nM	10.7	–
E21 [9], 3000 nM	14.7	–
E28 [3], 4.1 nM	–	0.582
E28 [3], 12.3 nM	–	0.296
E28 [3], 37 nM	–	0.14
E28 [3], 111.1 nM	–	0.149
E28 [3], 333.3 nM	–	0.0863
E28 [3], 1000 nM	–	0.102
E28 [3], 3000 nM	–	0.0701
E28 [10], 4.1 nM	2.24	–
E28 [10], 12.3 nM	3.91	–
E28 [10], 37 nM	4.89	–
E28 [10], 111.1 nM	4.69	–
E28 [10], 333.3 nM	6.98	–
E28 [10], 1000 nM	6.52	–
E28 [10], 3000 nM	5.85	–
E31 [4], 4.1 nM	–	0.365
E31 [4], 12.3 nM	–	0.223
E31 [4], 37 nM	–	0.0335
E31 [4], 111.1 nM	–	0.0134
E31 [4], 333.3 nM	–	0.0218
E31 [4], 1000 nM	–	0.0402
E31 [4], 3000 nM	–	0.00669
E31 [11], 4.1 nM	3.6	–
E31 [11], 12.3 nM	5.68	–
E31 [11], 37 nM	7.85	–
E31 [11], 111.1 nM	7.57	–
E31 [11], 333.3 nM	8.35	–
E31 [11], 1000 nM	9.03	–
E31 [11], 3000 nM	17.2	–
E34 [5], 4.1 nM	–	0.609
E34 [5], 12.3 nM	–	0.423
E34 [5], 37 nM	–	0.163
E34 [5], 111.1 nM	–	0.126
E34 [5], 333.3 nM	–	0.0695
E34 [5], 1000 nM	–	0.0659
E34 [5], 3000 nM	–	0.0494
E34 [12], 4.1 nM	2.17	–
E34 [12], 12.3 nM	4.29	–
E34 [12], 37 nM	6.54	–
E34 [12], 111.1 nM	7.64	–
E34 [12], 333.3 nM	9.65	–
E34 [12], 1000 nM	10.2	–
E34 [12], 3000 nM	10.4	–
E57 [6], 4.1 nM	–	0.118
E57 [6], 12.3 nM	–	0.0366
E57 [6], 37 nM	–	0.00889
E57 [6], 111.1 nM	–	0.00993
E57 [6], 333.3 nM	–	0.00889
E57 [6], 1000 nM	–	0.0105
E57 [6], 3000 nM	–	0.00366
E57 [13], 4.1 nM	8.41	–
E57 [13], 12.3 nM	11.9	–
E57 [13], 37 nM	11	–
E57 [13], 111.1 nM	10.2	–
E57 [13], 333.3 nM	10.1	–
E57 [13], 1000 nM	9.67	–
E57 [13], 3000 nM	7.76	–
FT3469 [7], 4.1 nM	–	0.583
FT3469 [7], 12.3 nM	–	0.704
FT3469 [7], 37 nM	–	0.371
FT3469 [7], 111.1 nM	–	0.386
FT3469 [7], 333.3 nM	–	0.297
FT3469 [7], 1000 nM	–	0.239
FT3469 [7], 3000 nM	–	0.103
FT3469 [14], 4.1 nM	2.53	–
FT3469 [14], 12.3 nM	2.8	–
FT3469 [14], 37 nM	4.87	–
FT3469 [14], 111.1 nM	6.47	–
FT3469 [14], 333.3 nM	6.55	–
FT3469 [14], 1000 nM	7.04	–
FT3469 [14], 3000 nM	7.74	–

From the supplement of paper PMC13207355
